These results are taken from article PMC8795987, “Time-dependent inhibition of CYP3A4-mediated midazolam metabolism by macrolide antibiotics in CYP3A4 genetic variants: Comparison with testosterone metabolism” (International Journal of Clinical Pharmacology and …, 2021).

For data set [1], the system named is CYP3A. As to conditions: cited from earlier work.
The test system of data set [2] is CYP3A4 WT, .2, .7, .16, .18. In words: Mechanism-based inhibition of midazolam 1′-hydroxylation, results stated across the five variants. The note with it: human, pH 7.4, probe midazolam 2 µM (1′-hydroxylation), range over the five variants. It is filed as biochemical, human. As to the method: (§1) Next, 4 µM midazolam solution (final concentration at incubation: 2 µM) together with NADPH-generating system solution and 300 mM K^+ phosphate buffer containing 0.3 mM EDTA were added to start the metabolic reaction for 20 minutes at 37 °C. The reaction was terminated by the addition of 450 µL of ice-cold methanol, followed by 50 µL of 0.1 µM nitrazepam as an internal standard. The mixture was then centrifuged at 3,500 ×g for 20 minutes at 4 °C, and the concentration of 1′-hydroxymidazolam in the supernatant was determined using HPLC-ultraviolet (UV) method described below.
(§2) The HPLC system consisted of a pump ([…]; Shimadzu, Kyoto, Japan), an UV-detector SPD-10AD (Shimadzu), and an octadecylsilyl column (Cosmosil, 5C18-MS-II, 4.6×250 mm, ODS; Nacalai Tesque, Kyoto, Japan). The mobile phase consisted of 50% methanol (v/v) and was pumped at a rate of 1.5 mL/min. The UV wavelength was set at 245 nm.
(§3) Based on the static model, residual enzyme activity (ε) under the steady state is determined by the inactivation rate by the MBI inhibitor (k inact ([I])) and the turnover rate in the absence of inhibitor (k deg), and calculated by using the following Equation 2.

Data set [3] relates to five CYP3A4 genetic variants (Wt, .2, .7, .16, .18). Described as above. It is filed as biochemical, human. The note with it: all CYP3A4 variants; preincubation with NADPH-generating system. The method, then:
as §1, §2, §3

Data set [4] deals with CYP3A4 genetic variants. The data set can be described thus: Static model estimate of residual enzyme activity and midazolam AUC ratio in CYP3A4 genetic variants. Details: species or system human. The note with it: all genetic variants; increase in AUC of 2- to < 5-fold; estimated. As to the method:
as §3

Data set [5] in a line: Clinical plasma concentration. It is filed as in vivo, human. As to conditions: for Cmax,u (maximum plasma unbound concentration in the clinical settings): Cmax × fu; for Cmax: oral, human plasma, converted from μg/mL.
Data set [6] has as its target T1, CYP3A4 WT (Homo sapiens, UniProt P08684).
T1 construct: made in house; host or cells: Escherichia coli
The data set can be described thus: Mechanism-based inhibition of midazolam 1′-hydroxylation by recombinant CYP3A4 WT. It is filed as biochemical. As to conditions: substrate midazolam, geometric mean (–1S.D. ~ +1S.D.), n = 5, read-out: K I. The method, then:
(§4) 1′-Hydroxymidazolam was purchased from Biosciences-Discovery Labware (Tokyo, Japan). The membrane fraction of CYP3A4 (WT, .2, .7, .16, .18) expressed by Escherichia coli were prepared according to our previously reported method. All other chemicals and reagents of analytical and high-performance liquid chromatography (HPLC) grade were obtained from commercial sources.
as §1, §2

Data set [7] deals with T2, CYP3A4.2 (Homo sapiens, UniProt P08684, S222P).
T2 construct: made in house; host or cells: Escherichia coli
T2 sequence (P08684 whole entry S222P): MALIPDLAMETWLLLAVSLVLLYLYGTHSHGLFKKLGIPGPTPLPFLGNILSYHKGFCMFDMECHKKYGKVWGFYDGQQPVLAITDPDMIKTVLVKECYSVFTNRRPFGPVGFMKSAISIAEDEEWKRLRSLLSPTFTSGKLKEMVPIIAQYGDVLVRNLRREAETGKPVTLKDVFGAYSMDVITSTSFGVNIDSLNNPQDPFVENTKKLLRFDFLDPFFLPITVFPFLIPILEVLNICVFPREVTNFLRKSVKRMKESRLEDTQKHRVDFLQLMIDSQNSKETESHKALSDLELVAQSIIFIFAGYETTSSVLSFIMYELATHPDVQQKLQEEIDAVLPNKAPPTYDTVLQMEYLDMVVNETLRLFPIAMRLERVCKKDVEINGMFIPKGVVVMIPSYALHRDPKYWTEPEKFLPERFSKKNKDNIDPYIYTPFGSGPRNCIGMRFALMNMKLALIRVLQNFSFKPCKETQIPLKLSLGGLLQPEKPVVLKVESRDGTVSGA
The data set can be described thus: Mechanism-based inhibition of midazolam 1′-hydroxylation by recombinant CYP3A4.2. The note with it: substrate midazolam, geometric mean (–1S.D. ~ +1S.D.), n = 5. It is filed as biochemical. As to the method:
as §4, §1, §2

Data set [8] addresses T3, CYP3A4.7 (Homo sapiens, UniProt P08684, G56D).
T3 construct: made in house; host or cells: Escherichia coli
The data set can be described thus: Mechanism-based inhibition of midazolam 1′-hydroxylation by recombinant CYP3A4.7. It is filed as biochemical. As to conditions: substrate midazolam, geometric mean (–1S.D. ~ +1S.D.), n = 5. As to the method: as §4, §1, §2

For data set [9], the target named is T4, CYP3A4.16 (Homo sapiens, UniProt P08684, T185S).
T4 construct: made in house; host or cells: Escherichia coli
T4 sequence (P08684 whole entry T185S): as the sequence (P08684 whole entry S222P) above, with T185S, P222S counted along it
In words: Mechanism-based inhibition of midazolam 1′-hydroxylation by recombinant CYP3A4.16. It is filed as biochemical. As to conditions: substrate midazolam, geometric mean (–1S.D. ~ +1S.D.), n = 5. As to the method:
as §4, §1, §2

For data set [10] the following is noted: erythromycin; cited from earlier work.

T1 sequence (P08684 whole entry): as the sequence (P08684 whole entry S222P) above, with P222S counted along it
T3 sequence (P08684 whole entry G56D): as the sequence (P08684 whole entry S222P) above, with G56D, P222S counted along it

Regarding `Cc1ncc2n1-c1ccc(Cl)cc1C(c1ccccc1F)=NC2` [midazolam, Midazolam], the “fm,CYP3A (contribution of 1-hydroxylation by CYP3A to overall systemic elimination)” value in data set [1] is on record as 98%.

Take `CC[C@H]1OC(=O)[C@H](C)[C@@H](O[C@H]2C[C@@](C)(OC)[C@@H](O)[C@H](C)O2)[C@H](C)[C@@H](O[C@@H]2O[C@H](C)C[C@H](N(C)C)[C@H]2O)[C@](C)(OC)C[C@@H](C)C(=O)[C@H](C)[C@@H](O)[C@]1(C)O` [Clarithromycin]: the Ki in data set [2] (in vitro data in the present study, substrate midazolam, read-out: KI (range among variants)) fell in the range of 689 to 2690 nM. The KI (inactivation) in data set [2] (product of K I and fu,mic, read-out: KI,u (unbound concentration of inhibitor that confers half-maximal rate of inactivation)) was 590 to 2310 nM. In data set [3], the “inhibition of 1′-hydroxylation of midazolam by all CYP3A4 variants” value is reported as “time-dependent manner”. Besides, the “extent of DDI category based on the FDA guideline” value in data set [4] is “moderate”. For the same compound, in [5], the “Cmax,u (maximum plasma unbound concentration in the clinical settings)” value was found to be 775 nM and the highest level (Cmax) was 1550 nM.

For the compound `CC[C@H]1OC(=O)[C@H](C)[C@@H](O[C@H]2C[C@@](C)(OC)[C@@H](O)[C@H](C)O2)[C@H](C)[C@@H](O[C@@H]2O[C@H](C)C[C@H](N(C)C)[C@H]2O)[C@](C)(O)C[C@@H](C)C(=O)[C@H](C)[C@@H](O)[C@]1(C)O` [Erythromycin], in data set [6], the KI (inactivator concentration giving half-maximal inactivation rate) worked out at 677 nM. Besides, the Ki came to 1140 nM in data set [7], 512 nM in data set [8] and 1820 nM in data set [9]. The “Cmax,u (maximum plasma unbound concentration in the clinical settings)” value in data set [5] was determined as 721 nM. For the same compound, in [5], the Cmax (in general, the highest concentration seen after dosing) was 1120 nM. In addition, the “fu,mic (estimated unbound fraction in microsomal preparation)” value in [10] is reported as 0.857.
